Data reported in ChEMBL document CHEMBL3797048, “Structure-activity relationship studies of new rifamycins containing l-amino acid esters as inhibitors of bacterial RNA polymerases” (Eur J Med Chem, 2016).
≈ marks a conversion by molar mass, not a printed value.

How the values were obtained:
[1] = test system: Staphylococcus aureus; assay: Antibacterial activity against Staphylococcus aureus ATCC 6538 after 18 hrs by microdilution method; assay type: functional; conditions: ATCC 6538, 18 h
[2] = test system: Staphylococcus aureus; assay: Antibacterial activity against methicillin resistant Staphylococcus aureus isolate 2 after 18 hrs by microdilution method; assay type: functional; conditions: isolate 2, 18 h
[3] = test system: Staphylococcus aureus; assay: Antibacterial activity against methicillin resistant Staphylococcus aureus isolate 5 after 18 hrs by microdilution method; assay type: functional; conditions: isolate 5, 18 h
[4] = test system: Staphylococcus aureus; assay: Antibacterial activity against methicillin resistant Staphylococcus aureus isolate 1 after 18 hrs by microdilution method; assay type: functional; conditions: isolate 1, 18 h
[5] = test system: Staphylococcus aureus; assay: Antibacterial activity against methicillin resistant Staphylococcus aureus isolate 4 after 18 hrs by microdilution method; assay type: functional; conditions: isolate 4, 18 h
[6] = test system: Pseudomonas aeruginosa; assay: Antibacterial activity against Pseudomonas aeruginosa NCTC 6749 after 18 hrs by microdilution method; assay type: functional; conditions: NCTC 6749, 18 h
[7] = test system: Staphylococcus epidermidis; assay: Antibacterial activity against Staphylococcus epidermidis ATCC 12228 after 18 hrs by microdilution method; assay type: functional; conditions: ATCC 12228, 18 h
[8] = test system: Escherichia coli; assay: Antibacterial activity against Escherichia coli ATCC 25922 after 18 hrs by microdilution method; assay type: functional; conditions: ATCC 25922, 18 h
[9] = test system: Staphylococcus aureus; assay: Antibacterial activity against Staphylococcus aureus ATCC 25923 after 18 hrs by microdilution method; assay type: functional; conditions: ATCC 25923, 18 h
[10] = test system: Staphylococcus aureus; assay: Antibacterial activity against methicillin resistant Staphylococcus aureus isolate 3 after 18 hrs by microdilution method; assay type: functional; conditions: isolate 3, 18 h
[11] = test system: Staphylococcus epidermidis; assay: Antibacterial activity against Staphylococcus epidermidis ATCC 49134 after 18 hrs by microdilution method; assay type: functional; conditions: ATCC 49134, 18 h
[12] = test system: Staphylococcus aureus; assay: Antibacterial activity against Staphylococcus aureus ATCC 4163 after 18 hrs by microdilution method; assay type: functional; conditions: ATCC 4163, 18 h
[13] = Octanol-water partition coefficient, logP of the compound after 1 hr by UV-vis spectrophotometric analysis; assay type: physicochemical
[14] = Solubility in water at pH 7 by UV-vis spectrophotometric analysis; assay type: physicochemical

| Compound | MIC [1] [µg/mL] | MIC [2] [µg/mL] | MIC [3] [µg/mL] | MIC [4] [µg/mL] | MIC [5] [µg/mL] | MIC [6] [µg/mL] | MIC [7] [µg/mL] | MIC [8] [µg/mL] | MIC [9] [µg/mL] | MIC [10] [µg/mL] | MIC [11] [µg/mL] | MIC [12] [µg/mL] | logP at 1 h [13] | solubility [14] [µg/mL] |
| --- | --- | --- | --- | --- | --- | --- | --- | --- | --- | --- | --- | --- | --- | --- |
| CO[C@H]1/C=C/O[C@@]2(C)Oc3c(C)c(O)c4c(O)c(c(C=O)c(O)c4c3C2=O)NC(=O)/C(C)=C\C=C\[C@H](C)[C@H](O)[C@@H](C)[C@@H](O)[C@@H](C)[C@H](OC(C)=O)[C@@H]1C | > 2 | > 2 | > 2 | > 2 | > 2 | > 2 | 1 (≈ 1.38 µM) | > 2 | > 2 | > 2 | 1 (≈ 1.38 µM) | 2 (≈ 2.76 µM) | – | – |
| CO[C@H]1/C=C/O[C@@]2(C)Oc3c(C)c(O)c4c(O)c(c(CN[C@@H](Cc5ccccc5)C(=O)OC(C)(C)C)c(O)c4c3C2=O)NC(=O)/C(C)=C\C=C\[C@H](C)[C@H](O)[C@@H](C)[C@@H](O)[C@@H](C)[C@H](OC(C)=O)[C@@H]1C | 0.5 (≈ 0.537 µM) | – | 0.5 (≈ 0.537 µM) | 0.5 (≈ 0.537 µM) | 0.5 (≈ 0.537 µM) | > 2 | 0.125 (≈ 0.134 µM) | > 2 | 1 (≈ 1.07 µM) | – | 0.25 (≈ 0.269 µM) | 0.5 (≈ 0.537 µM) | 2.66 | 30 (≈ 32.2 µM) |
| CCOC(=O)[C@H](CCCCN)NCc1c2c(O)c3c(O)c(C)c4c(c3c1O)C(=O)[C@@](C)(O/C=C/[C@H](OC)[C@@H](C)[C@@H](OC(C)=O)[C@H](C)[C@H](O)[C@H](C)[C@@H](O)[C@@H](C)/C=C/C=C(/C)C(=O)N2)O4 | 2 (≈ 2.26 µM) | > 2 | – | > 2 | – | – | 0.5 (≈ 0.566 µM) | – | > 2 | > 2 | 1 (≈ 1.13 µM) | 2 (≈ 2.26 µM) | 2.2 | 120 (≈ 136 µM) |
| CCOC(=O)[C@H](Cc1ccc(O)cc1)NCc1c2c(O)c3c(O)c(C)c4c(c3c1O)C(=O)[C@@](C)(O/C=C/[C@H](OC)[C@@H](C)[C@@H](OC(C)=O)[C@H](C)[C@H](O)[C@H](C)[C@@H](O)[C@@H](C)/C=C/C=C(/C)C(=O)N2)O4 | 0.5 (≈ 0.544 µM) | – | 0.5 (≈ 0.544 µM) | 0.5 (≈ 0.544 µM) | 0.5 (≈ 0.544 µM) | > 2 | 0.063 (≈ 0.0686 µM) | > 2 | 2 (≈ 2.18 µM) | – | 0.125 (≈ 0.136 µM) | 0.5 (≈ 0.544 µM) | 1.92 | 50 (≈ 54.4 µM) |
| COC(=O)[C@H](Cc1ccc(O)cc1)NCc1c2c(O)c3c(O)c(C)c4c(c3c1O)C(=O)[C@@](C)(O/C=C/[C@H](OC)[C@@H](C)[C@@H](OC(C)=O)[C@H](C)[C@H](O)[C@H](C)[C@@H](O)[C@@H](C)/C=C/C=C(/C)C(=O)N2)O4 | 0.5 (≈ 0.552 µM) | 1 (≈ 1.1 µM) | 0.5 (≈ 0.552 µM) | 0.5 (≈ 0.552 µM) | 0.5 (≈ 0.552 µM) | > 2 | 0.063 (≈ 0.0696 µM) | > 2 | 1 (≈ 1.1 µM) | 1 (≈ 1.1 µM) | 0.125 (≈ 0.138 µM) | 0.5 (≈ 0.552 µM) | 1.88 | 60 (≈ 66.3 µM) |
| COC(=O)[C@H](Cc1ccccc1)NCc1c2c(O)c3c(O)c(C)c4c(c3c1O)C(=O)[C@@](C)(O/C=C/[C@H](OC)[C@@H](C)[C@@H](OC(C)=O)[C@H](C)[C@H](O)[C@H](C)[C@@H](O)[C@@H](C)/C=C/C=C(/C)C(=O)N2)O4 | 0.063 (≈ 0.0709 µM) | – | 0.063 (≈ 0.0709 µM) | 0.125 (≈ 0.141 µM) | 0.063 (≈ 0.0709 µM) | > 2 | 0.031 (≈ 0.0349 µM) | > 2 | 0.125 (≈ 0.141 µM) | – | 0.031 (≈ 0.0349 µM) | 0.063 (≈ 0.0709 µM) | 2.47 | 70 (≈ 78.7 µM) |
| COC(=O)[C@H](Cc1cnc[nH]1)NCc1c2c(O)c3c(O)c(C)c4c(c3c1O)C(=O)[C@@](C)(O/C=C/[C@H](OC)[C@@H](C)[C@@H](OC(C)=O)[C@H](C)[C@H](O)[C@H](C)[C@@H](O)[C@@H](C)/C=C/C=C(/C)C(=O)N2)O4 | 0.25 (≈ 0.284 µM) | 1 (≈ 1.14 µM) | – | 0.5 (≈ 0.569 µM) | – | – | 0.25 (≈ 0.284 µM) | – | 1 (≈ 1.14 µM) | 1 (≈ 1.14 µM) | 0.125 (≈ 0.142 µM) | 0.25 (≈ 0.284 µM) | 1.72 | 150 (≈ 171 µM) |
